Measured values taken from patent US12049483B2, “Selective and noncovalent inhibitors of oncogenic RAS mutants” (New York University, priority 2020, dated 2024).
Peptide text beside a SMILES is read from it. * marks the point of attachment. Cbz = O=C(OCc1ccccc1)*

Key:
[1] = tested on: ERK activation (pERK); assay: ERK activation in dox-inducible monobody-expressing cell lines; type: cell-based; conditions: H358; after 24 and 48 hours; dox-induced expression or ARS1620 treatment
Procedure: Cell signaling assay and quantification of immunoblots. Cells were lysed in RIPA buffer (50 mM Tris-Cl pH 8, 150 mM NaCl, 5 mM EDTA pH8, 0.1% SDS, 1% NP40) supplemented with protease inhibitors (Roche; 5892991001) and phosphatase inhibitors (54 mM β-glycerophosphate, 10 mM NaF, 1 mM sodium vanadate) for 15 minutes on ice, and centrifuged at 15,000 g for 15 minutes. The supernatant was collected and measured for total protein amount using BCA assay (Thermo Scientific; 23227). Lysate (7-20 μg per well) was loaded onto a pre-cast SDS gel (BioRad; 456-1096) followed by electrophoresis. The proteins were then transferred from the gel to a low fluorescence background PVDF membrane (Millipore; IPFL00010) or regular PVDF membrane (Millipore; ISEQ00010) depending on whether fluorescence or chemiluminescence detection was performed. Phospho-ERK was detected using a rabbit anti-pERK antibody (Cell Signaling; 9101S) and total ERK was detected using a rabbit anti-ERK antibody (Cell Signaling; 9102S). Monobody expression was detected using mouse anti-Flag antibody (Sigma; F3165) or anti-HA tag antibody (BioLegend; 901516). Loading control was detected with primary antibody against tubulin-alpha (Thermo Scientific, 62204) or against cytochrome oxidase (COX IV) (Li-Cor, 926-42214). The total RAS level was detected using a pan-RAS antibody (SCBT, sc-166691). The KRAS level was determined using a KRAS-specific antibody (Sigma, WH0003845M1). For fluorescence detection of immunoblots, the membranes were imaged with a Licor Odyssey Clx imager (Li-Cor Bioscience) using IRDye anti-Rabbit 800CW and anti-Mouse 680LT (Li-Cor Bioscience, 926-32211 and 926-68020, respectively) as secondary antibodies. […] Band intensities of western blot were analyzed with Image Studio Lite version 5.2 (Li-Cor Bioscience). To quantify protein abundance in the degradation experiment, the intensities of pERK, RAS, KRAS, and Flag/HA tag bands were first normalized against the loading control of the perspective blot, which were either tubulin-α, COX IV or total ERK, followed by subsequent normalization to the zero time point. […]

[2] = biological target: T1, KRAS(G12C) (Homo sapiens, UniProt P01116, G12C); assay: Yeast display binding titration, KRAS(G12C); parameters: KRAS4B residues 1-174 containing G12C, G12V, G12D, G13D, Q61L, WT; His6 (N, cleaved yes); Avi-tag (N, cleaved yes); made in house; host or cells: E. coli BL21(DE3); conditions: ARS1620 added during nucleotide exchange
Procedure: Nucleotide exchange of RAS. Purified RAS proteins used in binding experiment and crystallization were prepared by diluting stock protein (typically containing 20-250 μM RAS) 25 times with 20 mM Tris-Cl buffer pH 7.5 containing 5 mM EDTA, 0.1 mM DTT and 1 mM final concentration of a nucleotide (GDP or GTPγS). Samples were incubated at 30° C. for 30 minutes. MgCl2 was then added to the sample at a final concentration of 20 mM and the solution was further incubated on ice for at least 5 minutes prior to use.
(§1) Monobody development. General procedures for the development of monobodies against purified protein targets have been described previously. After four rounds of phage display library selection using biotinylated KRAS(G12C) at concentrations of 100 nM, 100 nM, 50 nM and 50 nM, the genes encoding monobodies from the enriched phage pool were transferred to a yeast display vector, which was used to construct yeast-display libraries. The yeast display libraries were sorted using a Bio-Rad S3e fluorescence-activated cell sorter or a […] II cell sorter (BD Biosciences). […] Single clones were then screened for selective binding to RAS mutants. The expression of monobodies on the surface of yeast cells were detected using mouse anti-VS and anti-mouse IgG-FITC conjugate. Target binding was detected with neutravidin Dylight650. Yeast cells were analyzed using an iQue flow cytometer (Sartorius). […]
Target sequence in this assay (P01116 1-174 isoform P01116-2 G12C): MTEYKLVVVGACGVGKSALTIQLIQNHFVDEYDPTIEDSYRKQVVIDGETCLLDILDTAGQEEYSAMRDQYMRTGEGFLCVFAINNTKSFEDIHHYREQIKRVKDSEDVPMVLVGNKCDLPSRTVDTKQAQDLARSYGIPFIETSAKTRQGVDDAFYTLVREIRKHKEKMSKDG

[3] = biological target: T1, KRAS(G12C); assay: Degradation of KRAS in RASless MEFs by VHL-monobody fusions; type: cell-based, mouse; parameters: expressed in transfected cells; host or cells: RASless mouse embryonic fibroblasts; conditions: MLN4924 1 μM or MG132 5 μM for 24 hours
Procedure: as §1
Target sequence in this assay (P01116 1-188 isoform P01116-2 G12C): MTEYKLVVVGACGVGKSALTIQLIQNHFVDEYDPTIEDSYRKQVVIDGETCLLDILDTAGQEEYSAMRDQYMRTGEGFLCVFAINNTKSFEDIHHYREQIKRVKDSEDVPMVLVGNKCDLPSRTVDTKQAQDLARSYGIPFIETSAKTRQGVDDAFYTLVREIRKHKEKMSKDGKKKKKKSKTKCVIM
Cell signaling assay and quantification of immunoblots. […] The supernatant was collected and measured for total protein amount using BCA assay (Thermo Scientific; 23227). […] The proteins were then transferred from the gel to a low fluorescence background PVDF membrane (Millipore; IPFL00010) or regular PVDF membrane (Millipore; ISEQ00010) depending on whether fluorescence or chemiluminescence detection was performed. […] The total RAS level was detected using a pan-RAS antibody (SCBT, sc-166691). […]

For `C=CC(=O)N1CCN(c2ncnc3c(F)c(-c4c(O)cccc4F)c(Cl)cc23)CC1` [ARS1620], the “ERK activation in H358 cells” value [1] was “effectively inhibited” and the “binding of 12VC1 to KRAS(G12C) after reaction with ARS1620” value [2] was “abolished”.

For `NS(=O)(=O)OC[C@@H]1C[C@@H](n2ccc3c(N[C@H]4CCc5ccccc54)ncnc32)C[C@@H]1O` [MLN4924], the “effect on RAS degradation by VHL-monobody fusion” value [3] was “rescued”.

With `CC(C)C[C@@H](C=O)NC(=O)[C@H](CC(C)C)NC(=O)[C@H](CC(C)C)NC(=O)OCc1ccccc1` [MG132] (Cbz-Leu-Leu-Leu-aldehyde) the “effect on RAS degradation by VHL-monobody fusion” value [3] was “rescued”.
